Assay results: ChEMBL document CHEMBL1201862, “PubChem BioAssay data set” (2004)
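In this assay, cells in 96-well plates receive the compound at five concentrations for 48 hours. Endpoints are linearly interpolated between the surrounding concentrations. GI50 is the concentration that inhibits growth by half.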 Calls of active or inactive are those of the source. No stated cut-off is given here; in the data, active = GI50 up to about 1.1 µM and inactive = higher.

tested on: MCF7; assay: growth of human tumour cells (NCI), 48 h

**Q.** With O=c1c2cc(I)ccc2nc(SCc2nncs2)n1Cc1ccccc1 as the compound, how does the GI50 read?
**A.** 35.6 µM (inactive)

**Q.** How did the GI50 turn out when NC(CC1=CS(=O)(=O)c2ccc(Cl)cc21)C(=O)O (stereo not given) was run?
**A.** 92.3 µM (inactive)

**Q.** For Cc1cccc(C(C)O)n1 (stereo not given), which GI50 is on record?
**A.** > 100 µM (inactive)

**Q.** With CCC(=O)Nc1ccc(/N=C/c2cccc(Oc3ccccc3)c2)cc1 as the compound, how does the GI50 read?
**A.** 44.1 µM (inactive)

**Q.** With CC[C@@H]1CN2CCC1C[C@@H]2C(O)c1ccnc2ccc(OCCN3CCN(CCOc4ccc5nccc(C(O)[C@@H]6C[C@@H]7CCN6C[C@@H]7CC)c5c4)CC3)cc12 (stereo not given in full) as the compound, how does the GI50 read?
**A.** 15.5 µM (inactive)

**Q.** How did the GI50 turn out when CC(C)=CCC[C@@H](C)C1=C(O)C(=O)C(C)=C(Nc2ccccc2Br)C1=O was run?
**A.** 18.2 µM (inactive)

**Q.** Which GI50 does the source give for O=[N+]([O-])C(=C1NCCN1)/C(Cl)=C(/Cl)N1CCOCC1 here?
**A.** > 100 µM (inactive)

**Q.** For CCOC(=O)N/N=C(/N)Cc1ccc(Cl)cc1, which GI50 is on record?
**A.** > 100 µM (inactive)

**Q.** With O=C(O)C1C2C=CC(O2)C1C(=O)Nc1ncccn1 (stereo not given) as the compound, how does the GI50 read?
**A.** > 100 µM (inactive)

**Q.** COc1cc(C2S/C(=C/c3ccccc3)C(=O)N2c2ccccn2)cc(OC)c1OC (stereo not given) was tested. Which GI50 did it give?
**A.** 11.7 µM (inactive)

**Q.** With COc1ccc(C2SCC(=O)N2NC(=O)C(C)Oc2ccccc2C)cc1 (stereo not given) as the compound, how does the GI50 read?
**A.** 54.1 µM (inactive)

**Q.** For O=C(O)CCCCn1ccc(=O)[nH]c1=O, which GI50 is on record?
**A.** > 100 µM (inactive)

**Q.** Which GI50 does the source give for O=C(O)[C@@]1(Cc2ccc(O)cc2)C[C@@H]2Cc3ccccc3N2N1 here?
**A.** > 100 µM (inactive)

**Q.** For C=C1C[C@@H](O)[C@@H](Br)C(C)(C)[C@]12CCC(C)(Br)C(Cl)C2 (stereo not given in full), which GI50 is on record?
**A.** > 50 µM (inactive)

**Q.** For N#Cc1nc(-c2cccs2)oc1N, which GI50 is on record?
**A.** 83.2 µM (inactive)

**Q.** With COc1cc(=O)n2c3ccccc3n(C)c2c1C#N as the compound, how does the GI50 read?
**A.** > 100 µM (inactive)

**Q.** Which GI50 does the source give for Cc1ccc(S(=O)(=O)OC2=C/C(=N\c3onc(C)c3C)c3ccccc3C2=O)cc1 here?
**A.** 17.3 µM (inactive)

**Q.** With C#CC(O)(c1nc2ccccc2s1)c1nc2ccccc2s1 as the compound, how does the GI50 read?
**A.** 22.2 µM (inactive)

**Q.** Clc1nc(NC23CC4CC(CC(C4)C2)C3)nc(NC23CC4CC(CC(C4)C2)C3)n1 was tested. Which GI50 did it give?
**A.** 12.6 µM (inactive)

**Q.** With CN1C(=S)C(c2ccccc2)Sc2ccccc21 (stereo not given) as the compound, how does the GI50 read?
**A.** 48.8 µM (inactive)

**Q.** With O=C(O)c1ccc(N/C(=C(/C(Cl)=C(Cl)Cl)[N+](=O)[O-])n2nnc3ccccc32)cc1 as the compound, how does the GI50 read?
**A.** > 100 µM (inactive)

**Q.** With CCCCn1c(C)c(C(=O)OCC)c2cc(OCc3ccc(C(=O)Nn4c(C)ccc4C)cc3)c(Br)cc21 as the compound, how does the GI50 read?
**A.** > 100 µM (inactive)

**Q.** Which GI50 does the source give for CCOC(=O)c1cc2c(OC)cc(OC)cc2oc1=O here?
**A.** > 100 µM (inactive)

**Q.** How did the GI50 turn out when NCCN1C(=O)c2cc(Cl)c(Cl)cc2C1(O)c1ccc(Cl)cc1 (stereo not given) was run?
**A.** 1.83 µM (inactive)

**Q.** How did the GI50 turn out when Nc1ccc(C(=O)O)cc1.Nc1nc(N)c2nc[nH]c2n1 was run?
**A.** 3.97 µM (inactive)

**Q.** Which GI50 does the source give for Cc1ccc(/C=N/Nc2cnccn2)s1 here?
**A.** 17.4 µM (inactive)

**Q.** With Cc1cc(S(=O)(=O)Nc2nc3ccccc3[nH]2)c(S)cc1Cl as the compound, how does the GI50 read?
**A.** 71 µM (inactive)

**Q.** How did the GI50 turn out when CC1(C)CC(=O)C(CCC(=O)/C=C/c2ccccc2)C(=O)C1 was run?
**A.** > 100 µM (inactive)

**Q.** For O=S1(=O)c2ccccc2Oc2ccc(C(/C=N/O)=N/O)cc21, which GI50 is on record?
**A.** 26.5 µM (inactive)

**Q.** With CCOC(=O)COc1ccc(/C=C/C(=O)c2ccc(OC)cc2)cc1 as the compound, how does the GI50 read?
**A.** 30.7 µM (inactive)

**Q.** COc1ccc(/C=C2\N=C(c3ccccc3)N(C3Nc4cc5c(cc4S3)NC(N3C(=O)/C(=C/c4ccc(OC)cc4)N=C3c3ccccc3)S5)C2=O)cc1 (stereo not given) was tested. Which GI50 did it give?
**A.** 43.6 µM (inactive)

**Q.** With CSc1cc(-c2ccccn2)nc(-c2ccccn2)c1 as the compound, how does the GI50 read?
**A.** 0.324 µM (active)

**Q.** How did the GI50 turn out when COC(=O)C1CCC(=S)N1C(=O)OCc1ccccc1 (stereo not given) was run?
**A.** 88.3 µM (inactive)

**Q.** COc1cc2c(cc1OC)[C@@H]1[C@H](C#N)C(=O)C(C)(C)N1CC2 was tested. Which GI50 did it give?
**A.** > 100 µM (inactive)

**Q.** Which GI50 does the source give for c1ccc(C2=Nc3cccc4cccc(c34)N2)cc1 here?
**A.** 40.8 µM (inactive)

**Q.** Which GI50 does the source give for N#Cc1c(-c2nc3ccccc3s2)c(=O)oc2cc(O)ccc12 here?
**A.** 34.5 µM (inactive)

**Q.** Which GI50 does the source give for C/C(=N\Nc1nc2ccccc2s1)c1cccc[n+]1[O-] here?
**A.** 23.2 µM (inactive)

**Q.** Which GI50 does the source give for O=C(O)CCSc1ncnc2[nH]cnc12 here?
**A.** > 100 µM (inactive)

**Q.** How did the GI50 turn out when C[C@]12CC[C@H]3[C@@H](CCC4=CC(=O)C=C[C@@]43O)[C@@H]1CCC2=O was run?
**A.** > 100 µM (inactive)

**Q.** How did the GI50 turn out when CC(C)[C@H]1NC(=O)[C@H]2N=C(O[C@@H]2C)[C@@H]2CCCN2C(=O)[C@H](Cc2ccccc2)NC(=O)[C@@H]2COC(=N2)[C@@H](Cc2ccccc2)NC(=O)[C@@H]2COC1=N2 was run?
**A.** > 100 µM (inactive)
